The target of this test is T1, His-hMAGL (recombinant polyhistidine tagged human MAGL protein) (Homo sapiens, UniProt Q99685).
T1 construct: made in house; host or cells: E. coli BL21(DE3)
T1 sequence (Q99685 1-303): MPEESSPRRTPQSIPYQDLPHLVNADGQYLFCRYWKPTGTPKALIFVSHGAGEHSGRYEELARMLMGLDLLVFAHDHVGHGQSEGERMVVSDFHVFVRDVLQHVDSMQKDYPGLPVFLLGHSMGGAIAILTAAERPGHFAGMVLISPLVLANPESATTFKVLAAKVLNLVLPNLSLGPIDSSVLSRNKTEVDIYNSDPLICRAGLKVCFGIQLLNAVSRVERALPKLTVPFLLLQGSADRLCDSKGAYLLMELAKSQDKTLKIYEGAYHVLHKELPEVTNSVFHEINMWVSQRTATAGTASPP
In words: Measurement of MAGL inhibitory activity (arachidonic acid production from 2-arachidonylglycerol, RapidFire-mass spectrometry). Format: biochemical. To be noted: MAGL inhibitory rate, test compound 10 μM, 60 min preincubation, 2-arachidonylglycerol substrate. In short, it runs like this:
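Arachidonic acid formed was quantified by online solid-phase extraction and triple-quadrupole MS in negative SRM mode against a d8 internal standard. Reaction: recombinant His-hMAGL (7.5 ng/mL, pH 7.5 Tris buffer with Triton X-100 and BSA) plus 2-AG (5 μL of 150 μM stock) for 10 min at room temperature, quenched with 2% formic acid. Percent inhibition corrected for enzyme-free background.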

Structures are written as SMILES.

The text below walks through data of US10610520B2, “Heterocyclic compound” (Takeda Pharmaceutical Company Limited, priority 2016, dated 2020).

The term inhibition denotes the change of the read-out against control, counted positive when it falls.

As for `O=C1CCC2(CN(C(=O)c3sc4cc(OC(F)(F)F)ccc4c3C(F)F)C2)N1` [Example 265, 2-((3-(difluoromethyl)-6-(trifluoromethoxy)-1-benzothiophen-2-yl)carbonyl)-2,5-diazaspiro[3.4]octan-6-one], the inhibition at 10 µM came out at 97%. `O=C1NC2(CO1)CN(C(=O)c1sc3cccc(OC(F)(F)F)c3c1Cl)C2` [Example 266, 2-((3-chloro-4-(trifluoromethoxy)-1-benzothiophen-2-yl)carbonyl)-7-oxa-2,5-diazaspiro[3.4]octan-6-one]: the inhibition at 10 µM is 101%. In the case of `O=C1NC2(CO1)CN(C(=O)c1sc3c(OC(F)(F)F)ccc(F)c3c1Cl)C2` [Example 267, 2-((3-chloro-4-fluoro-7-(trifluoromethoxy)-1-benzothiophen-2-yl)carbonyl)-7-oxa-2,5-diazaspiro[3.4]octan-6-one], the inhibition at 10 µM is 101%. As for `O=C1NC2(CO1)CN(C(=O)c1sc3cccc(C(F)(F)F)c3c1Cl)C2` [Example 268, 2-((3-chloro-4-(trifluoromethyl)-1-benzothiophen-2-yl)carbonyl)-7-oxa-2,5-diazaspiro[3.4]octan-6-one], the inhibition at 10 µM worked out at 102%. `O=C1NC2(CO1)CN(C(=O)c1sc3cc(OC(F)(F)F)cc(F)c3c1Cl)C2` [Example 269, 2-((3-chloro-4-fluoro-6-(trifluoromethoxy)-1-benzothiophen-2-yl)carbonyl)-7-oxa-2,5-diazaspiro[3.4]octan-6-one]: the inhibition at 10 µM is 100%. In the case of `COc1c(C(=O)N2CC3(COC(=O)N3)C2)sc2c(C(F)(F)F)cccc12` [Example 270, 2-((3-methoxy-7-(trifluoromethyl)-1-benzothiophen-2-yl)carbonyl)-7-oxa-2,5-diazaspiro[3.4]octan-6-one], the inhibition at 10 µM was found to be 100%.

As for `O=C1NC2(CO1)CN(C(=O)c1sc3c(C(F)(F)F)cccc3c1OCC(F)(F)F)C2` [Example 271, 2-((3-(2,2,2-trifluoroethoxy)-7-(trifluoromethyl)-1-benzothiophen-2-yl)carbonyl)-7-oxa-2,5-diazaspiro[3.4]octan-6-one], the inhibition at 10 µM came to 100%. Turning to `O=C1NC2(CO1)CN(C(=O)c1sc3c(C(F)(F)F)cccc3c1OC(F)F)C2` [Example 272, 2-((3-(difluoromethoxy)-7-(trifluoromethyl)-1-benzothiophen-2-yl)carbonyl)-7-oxa-2,5-diazaspiro[3.4]octan-6-one], the inhibition at 10 µM came out at 100%. On to `O=C1COCC2(CCN(C(=O)c3sc4cc(OC(F)(F)F)ccc4c3Cl)C2)N1` (stereo not shown) [Example 273, 2-((3-chloro-6-(trifluoromethoxy)-1-benzothiophen-2-yl)carbonyl)-9-oxa-2,6-diazaspiro[4.5]decan-7-one], for which the inhibition at 10 µM was found to be 100%. Take `CC1(c2cccc(-c3ccc(C(=O)N4CC5(COC(=O)N5)C4)cc3F)c2)CC1` [Example 274, 2-((2-fluoro-3′-(1-methylcyclopropyl)biphenyl-4-yl)carbonyl)-7-oxa-2,5-diazaspiro[3.4]octan-6-one]: the inhibition at 10 µM was determined as 101%. In the case of `O=C1NC2(CO1)CN(C(=O)c1sc3ccc(C(F)(F)F)cc3c1C(F)F)C2` [Example 275, 2-((3-(difluoromethyl)-5-(trifluoromethyl)-1-benzothiophen-2-yl)carbonyl)-7-oxa-2,5-diazaspiro[3.4]octan-6-one], the inhibition at 10 µM is 100%. Take `O=C1COCC2(CCN(C(=O)N3CCC(COc4ccc(F)cc4Cl)CC3)C2)N1` (stereo not shown) [Example 276, 2-((4-((2-chloro-4-fluorophenoxy)methyl)piperidin-1-yl)carbonyl)-9-oxa-2,6-diazaspiro[4.5]decan-7-one]: the inhibition at 10 µM is 99%. Regarding `O=C1NC2(CO1)CN(C(=O)c1sc3c(C(F)(F)F)cccc3c1C(F)F)C2` [Example 277, 2-((3-(difluoromethyl)-7-(trifluoromethyl)-1-benzothiophen-2-yl)carbonyl)-7-oxa-2,5-diazaspiro[3.4]octan-6-one], the inhibition at 10 µM was 101%. The value for `O=C1NC2(CO1)CN(C(=O)c1sc3cc(C(F)F)ccc3c1Cl)C2` [Example 278, 2-((3-chloro-6-(difluoromethyl)-1-benzothiophen-2-yl)carbonyl)-7-oxa-2,5-diazaspiro[3.4]octan-6-one] was 101%; that for `O=C1NC2(CO1)CN(C(=O)c1sc3c(F)c(OC(F)(F)F)ccc3c1Cl)C2` [Example 279, 2-((3-chloro-7-fluoro-6-(trifluoromethoxy)-1-benzothiophen-2-yl)carbonyl)-7-oxa-2,5-diazaspiro[3.4]octan-6-one] was 100%; that for `O=C1NC2(CO1)CN(C(=O)c1sc3cc(OC(F)(F)F)c(F)cc3c1Cl)C2` [Example 280, 2-((3-chloro-5-fluoro-6-(trifluoromethoxy)-1-benzothiophen-2-yl)carbonyl)-7-oxa-2,5-diazaspiro[3.4]octan-6-one] was 101%. Regarding `CC1(c2cccc(-c3cc(Cl)c(C(=O)N4CC5(COC(=O)N5)C4)s3)c2)CC1` [Example 281, 2-((3-chloro-5-(3-(1-methylcyclopropyl)phenyl)-2-thienyl)carbonyl)-7-oxa-2,5-diazaspiro[3.4]octan-6-one], the inhibition at 10 µM came out at 100%.

As for `O=C1NC2(CCO1)CN(C(=O)c1sc3cc(OC(F)(F)F)ccc3c1Cl)C2` [Example 282, 2-((3-chloro-6-(trifluoromethoxy)-1-benzothiophen-2-yl)carbonyl)-7-oxa-2,5-diazaspiro[3.5]nonan-6-one], the inhibition at 10 µM came to 99%. Turning to `O=C1NC2(CCO1)CN(C(=O)c1sc3cccc(OC(F)(F)F)c3c1Cl)C2` [Example 283, 2-((3-chloro-4-(trilfuoromethoxy)-1-benzothiophen-2-yl)carbonyl)-7-oxa-2,5-diazaspiro[3.5]nonan-6-one], the inhibition at 10 µM turned out to be 99%. Turning to `COc1cc(F)c2c(Cl)c(C(=O)N3CC4(COC(=O)N4)C3)sc2c1` [Example 284, 2-((3-chloro-4-fluoro-6-methoxy-1-benzothiophen-2-yl)carbonyl)-7-oxa-2,5-diazaspiro[3.4]octan-6-one], the inhibition at 10 µM was determined as 101%. For the compound `O=C1NC2(CO1)CN(C(=O)c1sc3cc(Br)cc(F)c3c1Cl)C2` [Example 285, 2-((6-bromo-3-chloro-4-fluoro-1-benzothiophen-2-yl)carbonyl)-7-oxa-2,5-diazaspiro[3.4]octan-6-one], the inhibition at 10 µM stood at 100%.

`Cc1c(OC(F)(F)F)ccc2c(Cl)c(C(=O)N3CC4(COC(=O)N4)C3)sc12` [Example 286, 2-((3-chloro-7-methyl-6-(trifluoromethoxy)-1-benzothiophen-2-yl)carbonyl)-7-oxa-2,5-diazaspiro[3.4]octan-6-one]: the inhibition at 10 µM came out at 100%. On to `O=C1NC2(CO1)CN(C(=O)c1sc3cc(OCC(F)(F)F)ccc3c1Cl)C2` [Example 287, 2-((3-chloro-6-(2,2,2-trifluoroethoxy)-1-benzothiophen-2-yl)carbonyl)-7-oxa-2,5-diazaspiro[3.4]octan-6-one], for which the inhibition at 10 µM was 101%. On to `O=C1NC2(CO1)CN(C(=O)c1sc3ccccc3c1Cl)C2` [Example 288, 2-((3-chloro-1-benzothiophen-2-yl)carbonyl)-7-oxa-2,5-diazaspiro[3.4]octan-6-one], for which the inhibition at 10 µM is 100%. Consider `O=C1NC2(CO1)CN(C(=O)c1sc3cccc(Cl)c3c1Cl)C2` [Example 289, 2-((3,4-dichloro-1-benzothiophen-2-yl)carbonyl)-7-oxa-2,5-diazaspiro[3.4]octan-6-one], for which the inhibition at 10 µM turned out to be 101%. As to `O=C1NC2(CO1)CN(C(=O)c1sc3c(Cl)c(OC(F)(F)F)ccc3c1Cl)C2` [Example 290, 2-((3,7-dichloro-6-(trifluoromethoxy)-1-benzothiophen-2-yl)carbonyl)-7-oxa-2,5-diazaspiro[3.4]octan-6-one], the inhibition at 10 µM came to 101%. For `O=C1NC2(CO1)CN(C(=O)c1sc3cc(C(F)F)cc(C(F)(F)F)c3c1Cl)C2` [Example 291, 2-((3-chloro-6-(difluoromethyl)-4-(trifluoromethyl)-1-benzothiophen-2-yl)carbonyl)-7-oxa-2,5-diazaspiro[3.4]octan-6-one], the inhibition at 10 µM worked out at 101%. The value for `O=C1NC2(CO1)CN(C(=O)c1sc3cc(OC(F)F)cc(C(F)(F)F)c3c1Cl)C2` [Example 292, 2-((3-chloro-6-(difluoromethoxy)-4-(trifluoromethyl)-1-benzothiophen-2-yl)carbonyl)-7-oxa-2,5-diazaspiro[3.4]octan-6-one] was 100%; that for `O=C1NC2(CO1)CN(C(=O)c1sc3cc(OC(F)(F)F)cc(Cl)c3c1Cl)C2` [Example 293, 2-((3,4-dichloro-6-(trifluoromethoxy)-1-benzothiophen-2-yl)carbonyl)-7-oxa-2,5-diazaspiro[3.4]octan-6-one] was 101%; that for `COc1cc(F)c2c(Cl)c(C(=O)N3CC4(COC(=O)N4)C3)sc2c1Cl` [Example 294, 2-((3,7-dichloro-4-fluoro-6-methoxy-1-benzothiophen-2-yl)carbonyl)-7-oxa-2,5-diazaspiro[3.4]octan-6-one] was 100%. On to `Cc1cc2c(Cl)c(C(=O)N3CC4(COC(=O)N4)C3)sc2cc1OC(F)(F)F` [Example 295, 2-((3-chloro-5-methyl-6-(trifluoromethoxy)-1-benzothiophen-2-yl)carbonyl)-7-oxa-2,5-diazaspiro[3.4]octan-6-one], for which the inhibition at 10 µM was 101%.
